Source: ChEMBL document CHEMBL1201862, “PubChem BioAssay data set” (2004)
Active and inactive are the calls of the source.

What was measured:
[1] = Luminescence Cell-Based Dose Confirmation HTS to Identify Inhibitors of Polyadenylation.; type: functional
[2] = tested on: H4; experiment: Luminescence Cell-Based Dose Response HTS to Identify Activators of 5'UTR Stem-Loop Driven Prion Protein mRNA Translation in H4 Neuroglioblastoma Cells. [Related pubchem assays: 1829 (Project Summary), 1814 (Primary HTS)]; type: functional; settings: Homo sapiens
[3] = tested on: Streptococcus; experiment: GAS UMAA2166 growth inhibition – luminescence, BacTiterGlo, counter-screen for streptokinase expression inhibitor project, dose response (AID 1915); type: functional, organism-based;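 further: potency for reduction of bacterial viability or growth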
[4] = tested on: Streptococcus sp. 'group A'; experiment: Streptococcus pyogenes SK(-)GAS viability under kanamycin – luminescence, BacTiterGlo, confirmation, counter-screen for streptokinase expression inhibitor project, dose response (AID 1900); type: functional, organism-based
[5] = target: T1, Streptokinase A (Streptococcus pyogenes serotype M1, UniProt P10520); experiment: viability-normalized secreted streptokinase activity reduction – plasminogen activation absorbance, OD405, dose response (AID 1914); type: functional, Streptococcus pyogenes M1 GAS;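 further: secreted streptokinase activity via plasminogen activation per viability signal from cell pellet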
T1 sequence (P10520 whole entry): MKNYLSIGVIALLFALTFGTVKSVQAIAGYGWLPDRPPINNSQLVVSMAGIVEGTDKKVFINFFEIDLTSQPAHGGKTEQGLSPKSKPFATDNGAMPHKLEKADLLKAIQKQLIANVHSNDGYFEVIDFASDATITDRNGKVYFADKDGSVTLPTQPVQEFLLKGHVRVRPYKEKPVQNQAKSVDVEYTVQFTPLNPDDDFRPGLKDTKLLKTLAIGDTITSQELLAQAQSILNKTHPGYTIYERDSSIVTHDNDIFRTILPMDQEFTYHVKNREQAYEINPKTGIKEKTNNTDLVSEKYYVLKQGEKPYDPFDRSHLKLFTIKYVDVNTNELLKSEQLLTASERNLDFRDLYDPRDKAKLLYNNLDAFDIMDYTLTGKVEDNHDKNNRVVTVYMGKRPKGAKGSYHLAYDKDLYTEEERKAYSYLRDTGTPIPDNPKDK

[6] = Luminescence Cell-Based Dose Confirmation HTS to Identify Activators of 5'UTR Stem-Loop Driven Alpha-Synuclein mRNA Translation in H4 Neuroglioblastoma Cells. [Related pubchem assays: 1829 (Project Summary), 1814 (Primary HTS)]; type: functional
[7] = Luminescence Cell-Based Dose Confirmation to Identify Activators of 5'UTR Stem-Loop Driven Alpha-Synuclein mRNA Translation in H4 Neuroglioblastoma Cells. [Related pubchem assays: 1829 (Project Summary), 1814 (Primary HTS)]; type: functional
[8] = Luminescence Cell-Based Dose Response to Identify Activators of Luciferase Translation or Activity in H4-C Neuroglioblastoma Cells. [Related pubchem assays: 1829 (Project Summary), 1814 (Primary HTS)]; type: functional
[9] = Luminescence Cell-Based Dose Response to Identify Activators of 5'UTR Stem-Loop Driven Prion Protein mRNA Translation in H4-C Neuroglioblastoma Cells. [Related pubchem assays: 1829 (Project Summary), 1814 (Primary HTS)]; type: functional
[10] = target: DNA dC->dU-editing enzyme APOBEC-3G (Homo sapiens, UniProt Q9HC16); type: functional;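 further: Dose-response counterscreen measuring inhibition of APOBEC3G DNA deaminase activity, run while confirming APOBEC3A inhibitors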
Chain of DNA dC->dU-editing enzyme APOBEC-3G (Q9HC16 whole entry): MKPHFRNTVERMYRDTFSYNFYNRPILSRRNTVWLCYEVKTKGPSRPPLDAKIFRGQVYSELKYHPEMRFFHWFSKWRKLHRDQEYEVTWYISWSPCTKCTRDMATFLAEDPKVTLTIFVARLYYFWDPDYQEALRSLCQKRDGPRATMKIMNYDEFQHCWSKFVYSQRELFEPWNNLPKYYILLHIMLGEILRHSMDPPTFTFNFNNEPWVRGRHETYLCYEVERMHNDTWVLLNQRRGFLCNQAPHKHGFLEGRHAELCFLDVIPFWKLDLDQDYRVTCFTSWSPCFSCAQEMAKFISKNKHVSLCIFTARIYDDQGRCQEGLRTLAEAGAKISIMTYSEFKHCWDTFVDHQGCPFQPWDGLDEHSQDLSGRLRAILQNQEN

[11] = mitochondrial function rescue without frataxin homolog – Friedreich's ataxia, plus single-dose screen, dose response (AID 1465); type: functional;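 further: yeast depleted of Yfh1p frataxin homolog grown on glycerol needing respiration; WST-1 tetrazolium dye reduction as measure of cellular dehydrogenase metabolic activity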
[12] = target: DNA dC->dU-editing enzyme APOBEC-3A (Homo sapiens, UniProt P31941); experiment: Dose Response confirmation of small molecule APOBEC3A DNA Deaminase Inhibitors via a fluorescence-based single-stranded DNA deaminase assay. [Related pubchem assays (depositor defined):AID493011, AID493024]; type: functional
Chain of DNA dC->dU-editing enzyme APOBEC-3A (P31941 whole entry): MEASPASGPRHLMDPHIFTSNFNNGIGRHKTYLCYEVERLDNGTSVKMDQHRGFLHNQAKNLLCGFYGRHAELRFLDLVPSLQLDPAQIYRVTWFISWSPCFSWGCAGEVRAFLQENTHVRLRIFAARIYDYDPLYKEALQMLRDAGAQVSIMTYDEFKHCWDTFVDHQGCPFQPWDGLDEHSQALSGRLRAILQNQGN

[13] = NIH-3T3 fibroblast cytotoxicity, dose response, cytotoxicity control, cell-based, fluorescence, Alamar Blue, secondary assay (AID 2327); type: functional;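 further: NIH-3T3 mouse fibroblasts cultured with fluconazole at 8 µg/mL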
[14] = CCR5-tropic HIV-1 fusion blockers – cell-based, CCR5-tropic Env, dose response (AID 2279); type: functional
[15] = target: T2, Aminopeptidase N (Plasmodium falciparum FcB1/Columbia, UniProt O96935); experiment: malaria alanyl aminopeptidase activity blockers – biochemical, fluorogenic H-Leu-NHMec substrate, 1536-well (AID 1445); parameters: species or system Plasmodium falciparum 3D7, 3D7
T2 sequence (O96935 whole entry): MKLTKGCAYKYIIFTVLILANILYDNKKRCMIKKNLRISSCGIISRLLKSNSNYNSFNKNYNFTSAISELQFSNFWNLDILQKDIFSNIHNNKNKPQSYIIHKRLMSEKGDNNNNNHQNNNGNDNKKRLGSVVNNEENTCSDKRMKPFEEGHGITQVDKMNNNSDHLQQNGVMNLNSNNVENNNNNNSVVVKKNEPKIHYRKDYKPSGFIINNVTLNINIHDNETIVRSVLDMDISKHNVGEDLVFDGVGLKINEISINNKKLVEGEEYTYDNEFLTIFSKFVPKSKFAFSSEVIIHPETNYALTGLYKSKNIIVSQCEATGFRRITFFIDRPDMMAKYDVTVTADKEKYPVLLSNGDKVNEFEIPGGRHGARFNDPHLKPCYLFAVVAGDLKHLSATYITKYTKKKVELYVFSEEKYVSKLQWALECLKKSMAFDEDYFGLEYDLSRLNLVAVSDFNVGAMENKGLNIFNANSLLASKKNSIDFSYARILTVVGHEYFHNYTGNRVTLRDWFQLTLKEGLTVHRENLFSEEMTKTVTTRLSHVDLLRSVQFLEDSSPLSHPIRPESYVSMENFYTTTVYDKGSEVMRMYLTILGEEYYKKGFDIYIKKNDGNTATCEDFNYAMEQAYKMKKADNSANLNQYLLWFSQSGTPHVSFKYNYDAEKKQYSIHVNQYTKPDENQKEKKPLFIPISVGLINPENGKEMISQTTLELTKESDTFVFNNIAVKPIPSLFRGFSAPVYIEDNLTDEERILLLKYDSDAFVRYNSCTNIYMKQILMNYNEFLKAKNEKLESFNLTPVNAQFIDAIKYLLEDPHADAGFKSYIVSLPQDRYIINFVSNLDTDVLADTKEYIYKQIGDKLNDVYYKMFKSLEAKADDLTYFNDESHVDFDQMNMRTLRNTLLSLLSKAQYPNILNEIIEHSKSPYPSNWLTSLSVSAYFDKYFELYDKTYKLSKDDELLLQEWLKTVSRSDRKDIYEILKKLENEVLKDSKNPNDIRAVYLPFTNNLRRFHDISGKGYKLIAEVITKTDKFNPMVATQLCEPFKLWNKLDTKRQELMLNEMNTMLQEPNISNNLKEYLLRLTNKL

[16] = fluconazole-exposed Candida albicans growth modulators – fluorescence, retest, confirmation (AID 2467); type: functional, cell-based
[17] = target: Genome polyprotein (dengue virus type 2, UniProt P29990); experiment: flavivirus cap methylation enzyme inhibition – biochemical, confirmation dose response, primary screen (AID 588689); type: functional
Chain of Genome polyprotein (P29990 2492-3391 limits assumed): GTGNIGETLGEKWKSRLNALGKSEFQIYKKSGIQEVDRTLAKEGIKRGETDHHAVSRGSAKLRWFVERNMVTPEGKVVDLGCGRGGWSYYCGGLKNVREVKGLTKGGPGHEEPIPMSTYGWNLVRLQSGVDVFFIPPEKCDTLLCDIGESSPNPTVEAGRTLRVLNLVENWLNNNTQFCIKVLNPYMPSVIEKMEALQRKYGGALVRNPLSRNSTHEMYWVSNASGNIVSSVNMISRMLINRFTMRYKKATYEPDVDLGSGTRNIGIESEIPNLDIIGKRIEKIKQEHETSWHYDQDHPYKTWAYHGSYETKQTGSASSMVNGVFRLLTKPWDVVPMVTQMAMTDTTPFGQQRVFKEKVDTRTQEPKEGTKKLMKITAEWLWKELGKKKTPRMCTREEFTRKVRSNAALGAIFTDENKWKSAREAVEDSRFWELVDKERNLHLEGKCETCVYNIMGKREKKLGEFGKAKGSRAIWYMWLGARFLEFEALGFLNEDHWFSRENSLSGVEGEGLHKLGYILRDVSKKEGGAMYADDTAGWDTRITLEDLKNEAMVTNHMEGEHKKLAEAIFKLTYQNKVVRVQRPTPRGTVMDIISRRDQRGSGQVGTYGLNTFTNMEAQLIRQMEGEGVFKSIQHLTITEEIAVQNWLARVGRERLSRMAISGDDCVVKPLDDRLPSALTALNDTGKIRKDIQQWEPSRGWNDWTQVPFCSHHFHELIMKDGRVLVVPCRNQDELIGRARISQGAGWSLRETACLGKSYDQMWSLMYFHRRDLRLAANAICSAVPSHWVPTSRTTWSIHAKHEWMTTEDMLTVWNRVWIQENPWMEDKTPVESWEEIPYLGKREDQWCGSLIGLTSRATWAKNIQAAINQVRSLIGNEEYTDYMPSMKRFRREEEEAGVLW

[18] = target: Potassium voltage-gated channel subfamily KQT member 2 (Rattus norvegicus, UniProt O88943, W236L); experiment: potentiation of rat KCNQ2 current – cell-based, automated electrophysiology, mechanism study for KCNQ2 potentiator project, dose response (AID 2603); type: functional
Chain of Potassium voltage-gated channel subfamily KQT member 2 (O88943 whole entry W236L): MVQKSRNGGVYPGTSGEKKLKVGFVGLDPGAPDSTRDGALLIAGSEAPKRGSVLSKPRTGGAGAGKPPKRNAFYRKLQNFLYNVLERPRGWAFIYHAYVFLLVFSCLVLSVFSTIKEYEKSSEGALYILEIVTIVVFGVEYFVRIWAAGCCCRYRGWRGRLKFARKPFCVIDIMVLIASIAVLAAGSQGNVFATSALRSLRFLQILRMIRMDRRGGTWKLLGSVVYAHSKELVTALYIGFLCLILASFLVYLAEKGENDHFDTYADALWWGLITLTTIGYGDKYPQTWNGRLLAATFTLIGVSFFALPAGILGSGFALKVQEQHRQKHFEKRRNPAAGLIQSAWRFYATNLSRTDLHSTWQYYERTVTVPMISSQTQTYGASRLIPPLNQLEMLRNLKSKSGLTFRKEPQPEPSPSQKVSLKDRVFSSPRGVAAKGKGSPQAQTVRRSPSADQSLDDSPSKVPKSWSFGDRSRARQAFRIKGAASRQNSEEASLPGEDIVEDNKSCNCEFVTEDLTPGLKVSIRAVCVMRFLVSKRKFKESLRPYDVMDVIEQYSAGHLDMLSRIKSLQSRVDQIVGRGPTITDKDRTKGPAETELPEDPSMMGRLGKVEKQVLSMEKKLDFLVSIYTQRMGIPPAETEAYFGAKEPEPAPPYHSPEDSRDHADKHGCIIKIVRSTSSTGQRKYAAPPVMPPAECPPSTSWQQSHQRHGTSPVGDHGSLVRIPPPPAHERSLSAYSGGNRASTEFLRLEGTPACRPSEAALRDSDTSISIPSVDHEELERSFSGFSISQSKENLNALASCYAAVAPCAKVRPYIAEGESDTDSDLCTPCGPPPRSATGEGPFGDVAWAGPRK

[19] = target: Sphingosine 1-phosphate receptor 2 (Homo sapiens, UniProt O95136); experiment: Dose Response Cell Based Assay for Agonists of the S1P2 Receptor of Purchased Analogues. [Related pubchem assays: 729, 843, 854, 736 ]; type: functional
Chain of Sphingosine 1-phosphate receptor 2 (O95136 whole entry): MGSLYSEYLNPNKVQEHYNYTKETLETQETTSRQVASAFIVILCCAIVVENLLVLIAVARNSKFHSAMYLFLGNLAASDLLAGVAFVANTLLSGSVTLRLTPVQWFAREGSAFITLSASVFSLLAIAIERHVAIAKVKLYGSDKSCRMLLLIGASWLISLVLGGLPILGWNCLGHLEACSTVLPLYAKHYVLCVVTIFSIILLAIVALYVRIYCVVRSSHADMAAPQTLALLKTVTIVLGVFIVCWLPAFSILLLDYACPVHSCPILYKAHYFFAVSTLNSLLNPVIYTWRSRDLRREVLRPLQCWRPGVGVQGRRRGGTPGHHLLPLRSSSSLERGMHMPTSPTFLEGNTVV

[20] = target: T3, Bcl-2-like protein 10 (Homo sapiens, UniProt Q9HD36); experiment: Concentration-response of Bcl-B inhibitors by biochemical FP with TR3 (AID 1243); type: functional
T3 sequence (Q9HD36 whole entry): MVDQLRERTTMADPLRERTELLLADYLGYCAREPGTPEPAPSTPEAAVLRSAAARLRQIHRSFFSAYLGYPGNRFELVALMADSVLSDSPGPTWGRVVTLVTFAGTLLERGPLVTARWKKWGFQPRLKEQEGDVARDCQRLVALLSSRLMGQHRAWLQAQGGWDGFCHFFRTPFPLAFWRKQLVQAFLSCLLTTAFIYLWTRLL

[21] = target: T4, Neuropeptide Y receptor type 1 (Homo sapiens, UniProt P25929); type: functional;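 further: HEK293 cells with a CNG channel challenged with NPY then isoproterenol; potency as antagonist that reverses NPY suppression of cAMP signal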
T4 sequence (P25929 whole entry): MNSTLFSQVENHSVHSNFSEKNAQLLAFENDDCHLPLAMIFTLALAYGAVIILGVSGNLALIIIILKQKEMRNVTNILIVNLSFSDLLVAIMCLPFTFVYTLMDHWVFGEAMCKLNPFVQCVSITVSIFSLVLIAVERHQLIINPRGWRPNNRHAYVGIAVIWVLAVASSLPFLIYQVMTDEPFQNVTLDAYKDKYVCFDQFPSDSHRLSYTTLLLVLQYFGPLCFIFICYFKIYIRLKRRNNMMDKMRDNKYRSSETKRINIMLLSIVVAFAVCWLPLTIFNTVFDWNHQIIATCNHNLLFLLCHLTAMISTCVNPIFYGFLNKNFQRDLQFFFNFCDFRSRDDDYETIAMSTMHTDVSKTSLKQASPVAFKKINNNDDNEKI

[22] = target: T5, Neuropeptide Y receptor type 2 (Homo sapiens, UniProt P49146); type: functional, cell-based;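 further: HEK293 cells expressing the receptor and a CNG channel; stimulus was NPY near EC95 followed by isoproterenol to raise cAMP; antagonist potency measured as restoring cAMP signal that NPY suppresses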
T5 sequence (P49146 whole entry): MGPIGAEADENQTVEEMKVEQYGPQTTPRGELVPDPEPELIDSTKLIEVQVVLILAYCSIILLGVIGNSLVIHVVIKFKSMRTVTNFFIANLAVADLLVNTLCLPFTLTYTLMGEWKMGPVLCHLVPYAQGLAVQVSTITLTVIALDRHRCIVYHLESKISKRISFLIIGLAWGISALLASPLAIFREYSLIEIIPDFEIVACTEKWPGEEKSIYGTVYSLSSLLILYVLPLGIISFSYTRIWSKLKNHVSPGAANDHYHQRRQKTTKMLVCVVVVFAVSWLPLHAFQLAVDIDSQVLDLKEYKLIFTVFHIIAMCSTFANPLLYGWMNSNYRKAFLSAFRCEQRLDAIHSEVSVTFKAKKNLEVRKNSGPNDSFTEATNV

With `CC(C)CC1Nc2ncnc(N3CCN(c4ccccc4)CC3)c2N(Cc2ccccc2)C1=O` (stereo not given) the EC50 [1] was > 120 µM (not active).
With `Cc1ccc(Nc2nc3ccccc3[nH]2)nc1` the EC50 [2] was 43.1 µM (active), the EC50 [3] was > 150 µM (not active) and the EC50 [4] was 5.49 µM (active). For the same compound, the EC50 [5] was > 150 µM (not active), the EC50 [6] was < 0.1 µM (active) and the EC50 [7] was 0.601 µM (active). The EC50 [8] was 0.368 µM (active) and the EC50 [9] was 0.279 µM (active).
With `C[n+]1cc(C(=O)N2CCCCC2)ccc1/C=C/c1c[nH]c2ccccc12` the IC50 [10] was 2.7 µM (active), the EC50 [11] was > 100 µM (active) and the IC50 [12] was 2.44 µM (active).
With `CC1(C)CC(=O)C2=C(C1)c1c(ccc3ccccc13)NC2c1cc([N+](=O)[O-])cc([N+](=O)[O-])c1O` (stereo not given) the EC50 [3] was > 150 µM (not active), the EC50 [4] was 4.43 µM (active) and the EC50 [13] was 106 µM (active). For the same compound, the EC50 [5] was > 150 µM (not active), the IC50 [14] was 29.9 µM (active) and the IC50 [15] was 29.4 µM (active). For the same compound, the EC50 [16] was 0.622 µM (active) and the IC50 [17] was 25.3 µM (active).
With `O=C(Nc1ccc(Oc2ccc3ccccc3c2)cc1)c1ccco1` the EC50 [18] was 12 µM (active).
With `Cc1cc(C(=O)CN(C)CC(=O)N2CCOCC2)c(C)n1Cc1ccccc1` the EC50 [19] was > 30 µM (not active).
For `CC(=O)c1cc(C#N)c(SCC(=O)c2ccc(O)c(O)c2)nc1C`, the EC50 [20] was 11 µM (active).
In the case of `Cc1ccc(N=C(S)N=C(N)Nc2nc(C)c3cc(C)ccc3n2)c(C)c1`, the IC50 [21] is reported as > 35 µM (not active) and the IC50 [22] is reported as 22.9 µM (not active).
